Experimental data as given in ChEMBL document CHEMBL1201862, “PubChem BioAssay data set” (2004).
Where “and” joins values, the source holds several entries; their conditions need not be identical. Equal entries are not always repeated. Calls of active or inactive are those of the source.

Key:
Cytochrome P450 2C19 = Cytochrome P450 2C19 (Homo sapiens, UniProt P33261); experiment: Cytochrome panel assay with activity outcomes. Panel member name: p450-cyp2c19 Compounds with AC50 equal or less than 10 uM are considered active; assay type: functional; details: read-out: AC50
Cytochrome P450 3A4 = Cytochrome P450 3A4 (Homo sapiens, UniProt P08684);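 note: CYP3A4 tested as one member of a cytochrome P450 panel screen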
Cytochrome P450 2C9 = Cytochrome P450 2C9 (Homo sapiens, UniProt P11712)
Cytochrome P450 1A2 = target: T1, Cytochrome P450 1A2 (Homo sapiens, UniProt P05177);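 note: PubChem cytochrome P450 panel assay, CYP1A2 panel member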
T1 sequence (P05177 whole entry): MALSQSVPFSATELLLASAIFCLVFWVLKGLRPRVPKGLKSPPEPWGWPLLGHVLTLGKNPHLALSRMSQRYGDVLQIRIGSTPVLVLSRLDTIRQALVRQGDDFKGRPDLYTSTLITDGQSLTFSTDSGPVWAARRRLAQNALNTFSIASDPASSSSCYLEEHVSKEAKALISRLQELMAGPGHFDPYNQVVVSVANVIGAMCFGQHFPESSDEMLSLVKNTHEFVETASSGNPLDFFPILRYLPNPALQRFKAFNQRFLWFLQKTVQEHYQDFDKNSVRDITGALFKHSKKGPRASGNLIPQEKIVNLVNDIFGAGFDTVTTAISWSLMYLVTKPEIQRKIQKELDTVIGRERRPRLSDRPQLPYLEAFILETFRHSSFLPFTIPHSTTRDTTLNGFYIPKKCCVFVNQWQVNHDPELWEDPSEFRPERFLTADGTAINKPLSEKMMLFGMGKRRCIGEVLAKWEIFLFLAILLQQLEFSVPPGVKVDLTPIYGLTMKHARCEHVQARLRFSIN

[1] = NIH-3T3 fibroblast cytotoxicity, dose response, cytotoxicity control, cell-based, fluorescence, Alamar Blue, secondary assay (AID 2327); assay type: functional;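 note: NIH-3T3 mouse fibroblasts cultured with fluconazole at 8 µg/mL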
[2] = C. albicans growth with fluconazole, confirmation, fluorescence, retest (AID 2467); assay type: functional, cell-based
[3] = Luminescence Cell-Based Dose Retest to Confirm Inhibitors of Cancer Stem Cells. [Related pubchem assays (depositor defined):AID2717, AID2721]; assay type: functional; details: Homo sapiens
[4] = target: T2, Rac GTPase-activating protein 1 (Homo sapiens, UniProt Q9H0H5); experiment: MgcRacGAP GTPase-activating activity inhibitors, confirmation, biochemical, ADP Hunter fluorescence, primary and confirmatory (AID 624330); assay type: functional
T2 sequence (Q9H0H5 whole entry): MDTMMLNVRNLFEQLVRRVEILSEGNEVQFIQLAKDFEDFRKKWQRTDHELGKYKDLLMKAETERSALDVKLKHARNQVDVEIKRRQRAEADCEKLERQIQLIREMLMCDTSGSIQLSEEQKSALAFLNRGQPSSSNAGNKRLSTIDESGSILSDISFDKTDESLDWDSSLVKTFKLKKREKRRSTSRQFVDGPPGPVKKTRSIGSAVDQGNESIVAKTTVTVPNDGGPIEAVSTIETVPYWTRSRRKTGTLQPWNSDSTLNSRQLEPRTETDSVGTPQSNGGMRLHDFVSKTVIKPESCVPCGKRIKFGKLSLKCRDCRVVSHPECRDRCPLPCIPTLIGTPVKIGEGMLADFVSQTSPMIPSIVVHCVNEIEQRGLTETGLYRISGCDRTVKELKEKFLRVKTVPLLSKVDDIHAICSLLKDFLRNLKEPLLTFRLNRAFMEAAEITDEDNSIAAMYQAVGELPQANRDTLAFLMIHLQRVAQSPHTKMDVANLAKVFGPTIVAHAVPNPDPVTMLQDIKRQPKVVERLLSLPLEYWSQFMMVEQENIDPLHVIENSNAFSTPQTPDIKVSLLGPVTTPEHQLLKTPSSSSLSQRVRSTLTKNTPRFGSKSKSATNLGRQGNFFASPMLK

[5] = HepG2 cell cytotoxicity, dose response, cytotoxicity control for Shn3 inhibitor project, CellTiter-Glo, cherry-picked (AID 624134); assay type: functional, cell-based
[6] = Shn3 3'UTR reporter inhibitors, dose response, cell-based, Clone20 osteoblasts, firefly luciferase, cherry-picked (AID 624132); assay type: functional;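 note: firefly luciferase luminescence from reporter carrying the Shn3 3'UTR in osteoblasts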
[7] = control 3'UTR Renilla luciferase suppression, dose response, counter-screen for Shn3 inhibitor project, cell-based, Clone20-Shn3RL, cherry-picked (AID 624133); assay type: functional
Protein RecA = target: T3, Protein RecA (Mycobacterium tuberculosis, UniProt P9WHJ3); experiment: Fluorescence Cell-Free Homogeneous Dose Retest to Identify Inhibitors of RecA-Intein Splicing Activity. [Related pubchem assays (depositor defined):AID2097, AID2223, AID489010, AID492950]; assay type: functional
T3 sequence (P9WHJ3 whole entry): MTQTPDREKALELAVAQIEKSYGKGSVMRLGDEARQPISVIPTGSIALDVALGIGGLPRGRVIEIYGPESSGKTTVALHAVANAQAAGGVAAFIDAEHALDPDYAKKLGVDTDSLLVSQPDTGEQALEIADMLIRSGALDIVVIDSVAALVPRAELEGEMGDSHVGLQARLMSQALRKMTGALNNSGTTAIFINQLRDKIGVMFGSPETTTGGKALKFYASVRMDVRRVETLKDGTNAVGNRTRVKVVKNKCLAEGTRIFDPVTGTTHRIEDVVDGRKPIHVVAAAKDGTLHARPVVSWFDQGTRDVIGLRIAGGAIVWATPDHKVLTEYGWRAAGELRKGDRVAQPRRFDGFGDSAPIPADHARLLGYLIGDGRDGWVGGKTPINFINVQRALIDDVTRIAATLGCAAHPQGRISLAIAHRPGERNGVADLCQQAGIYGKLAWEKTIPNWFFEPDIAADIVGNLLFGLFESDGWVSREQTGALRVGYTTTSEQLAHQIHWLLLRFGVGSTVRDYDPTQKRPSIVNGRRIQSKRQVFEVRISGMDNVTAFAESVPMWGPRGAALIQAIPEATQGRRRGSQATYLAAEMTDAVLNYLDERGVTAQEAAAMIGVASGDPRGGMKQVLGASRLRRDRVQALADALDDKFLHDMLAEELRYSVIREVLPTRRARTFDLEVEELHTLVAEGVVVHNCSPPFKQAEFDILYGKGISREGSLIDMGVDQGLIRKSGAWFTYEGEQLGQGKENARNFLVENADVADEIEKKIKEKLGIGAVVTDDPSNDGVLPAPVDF

[8] = target: T4, Replicative DNA helicase DnaB (Mycobacterium tuberculosis, UniProt P9WMR3); experiment: DnaB intein splicing inhibitors, dose response, biochemical, cell-free fluorescence (AID 449749); assay type: functional
T4 sequence (P9WMR3 whole entry): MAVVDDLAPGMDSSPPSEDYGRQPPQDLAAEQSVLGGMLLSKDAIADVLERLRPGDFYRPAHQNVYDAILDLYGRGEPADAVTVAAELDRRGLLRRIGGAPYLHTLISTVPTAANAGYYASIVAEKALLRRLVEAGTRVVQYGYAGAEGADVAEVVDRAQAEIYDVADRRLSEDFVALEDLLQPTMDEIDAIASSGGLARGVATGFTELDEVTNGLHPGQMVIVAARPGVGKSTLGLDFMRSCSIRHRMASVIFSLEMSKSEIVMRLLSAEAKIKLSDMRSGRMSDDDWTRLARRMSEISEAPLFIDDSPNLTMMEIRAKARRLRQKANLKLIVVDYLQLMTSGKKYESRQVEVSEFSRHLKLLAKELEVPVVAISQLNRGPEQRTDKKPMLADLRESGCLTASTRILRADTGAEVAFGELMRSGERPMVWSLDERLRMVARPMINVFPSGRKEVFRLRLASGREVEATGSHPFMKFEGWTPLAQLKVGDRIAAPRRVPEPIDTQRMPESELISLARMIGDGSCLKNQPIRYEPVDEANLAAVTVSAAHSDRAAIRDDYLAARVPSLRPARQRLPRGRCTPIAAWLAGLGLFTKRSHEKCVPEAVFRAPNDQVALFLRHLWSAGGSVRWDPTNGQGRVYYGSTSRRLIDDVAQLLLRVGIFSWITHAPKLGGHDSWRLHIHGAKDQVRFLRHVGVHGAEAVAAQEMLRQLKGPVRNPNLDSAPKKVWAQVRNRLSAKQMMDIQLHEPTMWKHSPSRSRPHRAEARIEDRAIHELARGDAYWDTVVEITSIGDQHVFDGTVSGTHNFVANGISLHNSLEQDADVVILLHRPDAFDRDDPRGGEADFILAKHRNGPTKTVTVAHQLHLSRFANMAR

Cytochrome P450 2C19, sequence (P33261 whole entry): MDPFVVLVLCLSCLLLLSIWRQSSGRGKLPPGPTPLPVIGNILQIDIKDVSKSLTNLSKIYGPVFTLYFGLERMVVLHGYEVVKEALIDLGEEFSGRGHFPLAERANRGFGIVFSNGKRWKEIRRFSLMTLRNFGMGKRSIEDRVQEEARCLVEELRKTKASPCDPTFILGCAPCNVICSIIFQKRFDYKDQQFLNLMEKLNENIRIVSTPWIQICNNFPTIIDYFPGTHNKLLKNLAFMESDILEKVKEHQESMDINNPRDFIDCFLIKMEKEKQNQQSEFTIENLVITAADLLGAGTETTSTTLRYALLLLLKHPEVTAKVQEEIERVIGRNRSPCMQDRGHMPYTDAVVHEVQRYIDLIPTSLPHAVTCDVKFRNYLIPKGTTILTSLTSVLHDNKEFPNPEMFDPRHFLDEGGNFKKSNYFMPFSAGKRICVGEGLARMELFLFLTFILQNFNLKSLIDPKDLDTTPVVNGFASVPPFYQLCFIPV
Cytochrome P450 2C9, sequence (P11712 whole entry): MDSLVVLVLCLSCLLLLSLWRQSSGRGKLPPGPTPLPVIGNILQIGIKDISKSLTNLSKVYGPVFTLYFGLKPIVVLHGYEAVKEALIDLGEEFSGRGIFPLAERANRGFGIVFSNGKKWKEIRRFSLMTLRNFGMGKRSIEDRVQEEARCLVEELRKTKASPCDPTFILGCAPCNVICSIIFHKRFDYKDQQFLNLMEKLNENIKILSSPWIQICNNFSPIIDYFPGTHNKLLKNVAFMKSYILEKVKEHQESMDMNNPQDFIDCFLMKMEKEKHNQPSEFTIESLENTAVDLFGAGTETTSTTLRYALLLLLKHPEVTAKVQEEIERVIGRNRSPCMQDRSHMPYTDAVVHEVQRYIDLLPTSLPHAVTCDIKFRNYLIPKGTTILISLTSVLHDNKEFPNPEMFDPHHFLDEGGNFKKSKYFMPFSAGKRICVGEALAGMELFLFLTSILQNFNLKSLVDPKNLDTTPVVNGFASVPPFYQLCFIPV
Cytochrome P450 3A4, sequence (P08684 whole entry): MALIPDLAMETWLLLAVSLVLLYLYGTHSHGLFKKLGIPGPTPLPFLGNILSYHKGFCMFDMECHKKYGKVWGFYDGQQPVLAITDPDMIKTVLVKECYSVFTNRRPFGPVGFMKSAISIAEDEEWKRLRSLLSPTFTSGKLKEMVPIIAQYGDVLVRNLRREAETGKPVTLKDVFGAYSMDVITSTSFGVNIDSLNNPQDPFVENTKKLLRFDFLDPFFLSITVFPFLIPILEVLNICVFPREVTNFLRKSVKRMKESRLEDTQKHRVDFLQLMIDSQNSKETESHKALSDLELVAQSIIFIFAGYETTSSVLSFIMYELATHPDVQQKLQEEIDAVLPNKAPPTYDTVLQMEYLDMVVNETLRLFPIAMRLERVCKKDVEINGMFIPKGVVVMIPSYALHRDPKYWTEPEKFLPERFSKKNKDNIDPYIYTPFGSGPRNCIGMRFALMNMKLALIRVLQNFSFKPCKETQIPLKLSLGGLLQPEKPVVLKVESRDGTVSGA

Clc1ccccc1-c1ccc2ncnc(N3CCNCC3)c2c1
AC50 (Cytochrome P450 2C19): 31.6 µM (inconclusive)
AC50 (Cytochrome P450 3A4): 25.1 µM (inconclusive)

COc1ccc(CCNC(=O)Cn2c(=O)oc3ccccc32)cc1OC
AC50 (Cytochrome P450 2C9): 2.51 µM (inconclusive)
AC50 (Cytochrome P450 3A4): 22.4 µM (inconclusive)
AC50 (Cytochrome P450 1A2): 12.6 µM (inconclusive)

O=C(c1ccoc1)N1CCC2(CC1)Oc1ccc(F)cc1C(=O)C21CC(c2ccccc2)=NO1 (centres undefined)
EC50 [1]: > 150 µM (inconclusive)
EC50 [2]: 1.18 µM (active)

COc1cccc(OC)c1C(=O)Nc1cc(C)on1
AC50 (Cytochrome P450 2C19): 39.8 µM (inconclusive)
AC50 (Cytochrome P450 3A4): 20 µM (inconclusive)
AC50 (Cytochrome P450 1A2): 22.4 µM (inconclusive)

COc1ccc(-c2sc3ccccc3c2C#CCCO)cc1
AC50 [3]: 4.81 µM (active)

CC[C@H]1CC[C@H]2[C@@H]3CC=C4C[C@H](OC(C)=O)[C@@H](N)C[C@@]4(C)[C@H]3CC[C@@]12C
AC50 (Cytochrome P450 3A4): 2.51 µM (inconclusive)

Cc1ccc(NC(=O)C2C(C(=O)O)C3C=CC2C32CC2)cc1 (centres undefined)
EC50 [1]: 46.2 µM (active)
EC50 [2]: > 38 µM (not active)

Cc1nnc(SCC(=O)NCC2CCCCC2)n(N)c1=O
AC50 (Cytochrome P450 3A4): 25.1 µM (inconclusive)
AC50 (Cytochrome P450 1A2): 25.1 µM (inconclusive)

O=[N+]([O-])c1ccc(N2CCN(CCOCCO)CC2)c([N+](=O)[O-])c1
IC50 [4]: 204 µM (active)

O=C(c1ccncc1)N1CCC2(CC1)CN(c1ccc(-c3ccccc3)cc1)C2
AC50 (Cytochrome P450 2C19): 2.51 µM (inconclusive)
AC50 (Cytochrome P450 3A4): 2.51 µM (inconclusive)

COc1ccc(C(=O)N2CCC3(CCN(Cc4cc(C(F)(F)F)cc(C(F)(F)F)c4)CC3)CC2)cc1
AC50 (Cytochrome P450 3A4): 25.1 µM (inconclusive)

COc1ccc(-n2c(=O)c(C)nc3cnc(N4CCNCC4)nc32)cc1
AC50 (Cytochrome P450 3A4): 25.1 µM (inconclusive)

CCOc1ccc(OCC(=O)N(CCC2=CCCCC2)c2c(N)n(Cc3ccccc3)c(=O)[nH]c2=O)cc1
AC50 [5]: 27.3 µM (active)
AC50 [3]: 3.6 µM (active)
AC50 [6]: 8.66 µM (active)
AC50 [7]: 25.1 µM (active)

CN(C)CCCC1Sc2ccccc2Sc2ccccc21 (centres undefined)
IC50 [4]: 210 µM (active)

O=C(NNC(=O)c1ccccc1-n1cccc1)c1ccccc1
AC50 (Cytochrome P450 2C19): 11.2 µM (inconclusive)
AC50 (Cytochrome P450 2C9): 35.5 µM (inconclusive)

Cc1cc(CSc2ccccc2)ccc1NC(=O)COc1ccccc1
AC50 (Cytochrome P450 2C19): 2.24 µM (inconclusive)
AC50 (Cytochrome P450 3A4): 12.6 µM (inconclusive)
AC50 (Cytochrome P450 1A2): 7.08 µM (inconclusive)

COC(=O)C/C=C\[C@@H](C)[C@@H](/C=N\O[C@@H](C)c1cc(-c2c(C)cc(C)cc2C)no1)OC
AC50 (Cytochrome P450 2C19): 2.51 µM (inconclusive)
AC50 (Cytochrome P450 2C9): 3.16 µM (inconclusive)

COc1ccc(CN2CCC(C(N)=O)CC2)cc1OCc1ccccc1
IC50 [4]: 204 µM (active)

COc1cc(/C=N\NC(=O)CNC(=O)C2COc3ccccc3O2)ccc1O (centres undefined)
IC50 [4]: 29 µM (active)

COC(=O)c1ccccc1NC(=O)CSc1nnc(C(CO)NC(=O)c2ccccc2Cl)n1C (centres undefined)
AC50 (Cytochrome P450 3A4): 22.4 µM (inconclusive)

COc1ccc2sc(-c3ccc(SC)cc3)c(-c3ccc(O)cc3)c2c1
AC50 [3]: 2.61 µM (active)

Cc1ccc(C2C(C(=O)c3ccccc3)=C(O)C(=O)N2CCN2CCOCC2)o1 (centres undefined)
AC50 (Cytochrome P450 2C19): 14.1 µM (inconclusive)
AC50 (Cytochrome P450 2C9): 7.08 µM (inconclusive)
AC50 (Cytochrome P450 3A4): 25.1 µM (inconclusive)

Nc1ccc2[nH]c(Cc3ccccc3)nc2c1
IC50 [4]: 76.2 µM (active)
EC50 (Protein RecA): 55.9 µM (active)
AC50 [8]: > 380 µM (inactive)

CC1CCN(S(=O)(=O)c2ccc3c(c2)C(Cl)(Cl)C(=O)N3)CC1
IC50 [4]: 60.3 µM (active)

CC(C)(C)OC(=O)N1CCC(NC(=O)c2[nH]cnc2C(=O)Nc2ccc(Cl)cc2)CC1
AC50 [3]: 4.79 µM (active)

O=C(CN1CCN(Cc2ccccc2)CC1)N1CCCc2c1c(=O)oc1ccc(O)cc21
AC50 (Cytochrome P450 3A4): 3.98 µM (inconclusive)
AC50 (Cytochrome P450 1A2): 6.31 µM (inconclusive)

COc1ccccc1CNCC(=O)Nc1ccccc1-n1cccc1
IC50 [4]: 179 µM (active)

COc1ccc(Oc2ncc3nc(CCc4ccccc4)c(=O)n(C4CC4)c3n2)cc1
AC50 (Cytochrome P450 3A4): 5.01 µM (inconclusive)

CCOC(=O)C1=C(N)Oc2cc(O)ccc2C1c1cccc(Cl)c1 (centres undefined)
AC50 [3]: 1.77 µM (active)

Cc1cccc(NC(=S)N/N=C(\c2ccccc2)C(C)C)c1
EC50 [1]: > 150 µM (inconclusive)
EC50 [2]: 3.98 µM (active)

O=C(/C=C/c1ccc(Cl)cc1)NCCSc1ccccc1
AC50 (Cytochrome P450 2C9): 5.01 µM (inconclusive)

COc1ccc(OCCn2ccnc2C)cc1
IC50 [4]: 136 µM (active)

C/C(NNc1ccccc1)=C1/C(=O)NC(=O)N(c2ccccc2)C1=O
AC50 [3]: 1.05 µM (active)

O=c1cc(N2CCOCC2)oc2c(-c3ccccc3)cccc12 [LY-294002]
AC50 (Cytochrome P450 3A4): 10 µM (inconclusive) and 5.01 µM (inconclusive)

CC(C)NC(=O)c1ccccc1NC(=O)/C=C/c1ccc([N+](=O)[O-])cc1
AC50 (Cytochrome P450 2C9): 2 µM (inconclusive)
AC50 (Cytochrome P450 3A4): 35.5 µM (inconclusive)

COc1cc(/C=C(/C#N)c2nc3ccccc3[nH]2)ccc1OCC(=O)Nc1ccccc1C
AC50 [3]: 0.865 µM (active)
